Key:
T cells = assay: T-cell response in EAE mice (recall proliferation, cytokines, polarization); format: in vivo, mouse
Protocol: FIGS. 9a-d. Depletion of reactive astrocytes reduces the recruitment of peripheral leukocytes to the CNS. (a-d). EAE was induced in WT or GFAP^TK F1 hybrid mice and Ganciclovir (GCV) or vehicle control (PBS) was administered as in FIG. 1b. Data are representative of three independent experiments with n≥7 mice/group (means and s.e.m.). (a) Effect of GCV administration on reactive astrocytes detected by GFAP staining (b) Recruitment of monocytes (red gate) and lymphocytes (green gate) to the CNS assessed by FACS. Data are representative of three independent experiments. Statistical analysis by Student's t-test. (c, d) Effect of the depletion of reactive astrocytes during the chronic phase of EAE on the recall proliferative response to MOG(35-55) or anti-CD3 (c) and the expression of IFN-γ, IL-17A, Foxp3 and IL-10 in splenic CD4+ T cells (d). *P<0.05, and (n.s) not significant.
FIGS. 12a-i. […] (a) Naïve C57BL/6 (Left panel) and NOD (right panel) mice were treated with LacCer (10 μg per mouse) or vehicle as indicated by red arrows, and EAE clinical scores was recorded. At experimental end point (day 25), astrocytes were isolated and their transcriptional profile was determined by nCounter Nanostring analysis. (b-e) EAE was induced in C57BL/6 (b, c) or NOD mice (d, e) and LacCer or vehicle were administrated as in FIGS. 1g and 1h, respectively. Splenic T-cell recall response to MOG(35-55) (20 μg/ml); proliferation (b, d) and secretion of IL-17A, IFN-γ and IL-10 cytokines (c, e). Data are representative of two independent experiments with ≥8 mice/group (mean and s.e.m.). (f-i) EAE NOD mice were treated with PDMP or vehicle during the chronic phase as in FIG. 1K. Data are representative of three independent experiments with n≥8 mice/group (mean and s.e.m.). (f) qPCR analysis of the expression of tbx21, ifng, rorc, il17A, csf2, il10, foxp3, and tgfb1 mRNA of CD3^+CD4^+ T-cells isolated from the CNS; expression is presented relative to gapdh. (g, h) Recall response to MOG(35-55) (20 μg/ml); proliferation (g) and secretion of IL-17A, IFN-γ and IL-10 cytokines (h). (i) Expression of IFN-γ, IL-17A, Foxp3 and IL-10 by splenic CD3^+CD4^+ T cells (mean and s.e.m.).
Splenocytes and lymph node cells were cultured in X-VIVO medium and were plated for 72 h at a density of 5×10^5 cells per well in the presence of MOG35-55 peptide. During the final 16 h, cells were pulsed with […] [3H]thymidine (PerkinElmer), followed by collection on glass fiber filters and analysis of incorporated [3H]thymidine in a-counter (1450 MicroBeta TriLux; PerkinElmer). Supernatants were collect after 48 h of culture for cytokine measurement by enzyme-linked immunosorbent assay^14. For intracellular cytokine staining, cells were stimulated for 6 h with PMA (phorbol 12-myristate 13-acetate; 50 ng/ml; Sigma), ionomycin (1 μg/ml; Sigma) and monensin (GolgiStop; […]; BD Biosciences). After staining of surface markers, cells were fixed and made permeable according to the manufacturer's instructions BD Cytofix/Cytoperm™ Kit (BD Biosciences), or Foxp3 Fixation/Permeabilization (Ebiosceince).

NF-κB (P65) = assay: NF-κB translocation to the nucleus in astrocytes (western blot); format: cell-based, mouse; conditions: LPS/IFNγ; for translocation of NF-κB to the nucleus: cultured astrocytes
Protocol: FIGS. 14a-g. B4GALT6 directly controls astrocyte activation. (a) Cultured astrocytes were pre-treated for 1 h with PDMP (25 μM), LacCer (10 μM), both (LacCer+PDMP), or vehicle control (vehicle), followed by activation with LPS/IFNγ for 6 h, or left un-treated (control, Con). mRNA expression was analyzed 6 h following activation. qPCR analysis of the expression of cc/5, csf2, nos2, il6, H2-Aa, and tlr2 presented relative to gapdh. Statistical analysis by one-way ANOVA, followed by Tukey post-hoc analysis. (b, c) Cultured astrocytes were pre-treated for 1 h with LacCer (b) or PDMP (c), at indicated concentrations, followed by activation with LPS/IFNγ, or left un-treated (control, Con). Cell viability was determined 6 h after activation. […] Working concentrations (as in a) are marked in red. (d) The expression of B4galt6 (shB4galt6) or non-targeting shRNA (ShControl) in primary astrocytes was knocked-down using verified shRNA. Astrocytes were then pre-treated for 1 h with PDMP, or vehicle control (vehicle), followed by activation with LPS/IFNγ for 6 h, or left un-treated (control, Con). mRNA expression for H2-Aa, Ccl5 and Cxcl10 was determined; expression is presented as fold induction relative to housekeeping gene (Gapdh). Statistical analysis by one-way ANOVA, followed by Tukey post-hoc analysis (n≥3). […] (f) NF-κB (P65), GAPDH, and Lamin B expression, in cytoplasmic and nuclear fractions analyzed by western blot. The degree of NF-κB translocation to the nucleus was assessed by the ratio between the expression of P65 in nuclear and cytoplasmic fractions following densitometric quantification on four independent experiments (Right panel). […] (g) Expression of CCL-2 or iNOS in IRF-1^+ GFAP^+ astrocytes determined by IF during chronic EAE. […]
Astrocytes were treated as indicated, and total extracts (30 μg of protein), or the nuclear and cytoplasmic subcellular fractionations of cells, were separated by NuPAGE 10% Bis-Tris Gel (Invitrogen), and electroblotted onto supported nitrocellulose membrane. […] Data quantification was done using Image Studio software (Version 3.1.4) (LI-COR, Inc.)

IRF-1 = IRF-1 translocation to the nucleus in astrocytes (western blot); format: cell-based, mouse; conditions: primary astrocytes, PDMP 25 μM or LacCer 10 μM, LPS/IFNγ 45 min
Ly6C^high monocytes = assay: Response of Ly6C^high monocytes to LPS/IFNγ (nCounter); format: cell-based, mouse; conditions: LPS/IFNγ 6 h

Row | Molecule | T-cell response (T cells; NOD EAE, PDMP-treated mice, chronic phase) | translocation of NF-κB to the nucleus (NF-κB (P65)) | translocation of IRF-1 to the nucleus (IRF-1) | monocyte response to LPS/IFNγ stimulation (Ly6C^high monocytes) | T-cell response (T cells; C57BL/6 and NOD EAE after LacCer administration) | NF-κB translocation, LacCer added to PDMP (NF-κB (P65); LacCer + PDMP)
1 | CCCCCCCCCC(=O)N[C@H](CN1CCOCC1)[C@H](O)c1ccccc1 [PDMP, D-threo-1-phenyl-2-decanoylamino-3-morpholino-1-propanol] | No significant changes | decreased translocation of NF-κB to the nucleus | interfered with this process | did not affect |  | 
2 | lactosylceramide [LacCer] |  | triggered NF-M3 activation | enhanced the translocation of IRF-1 to the nucleus | did not affect | not linked to changes in the T-cell response | abrogated the inhibition induced by PDMP
